Experimental data published in patent US8039514B2, “Sulfonamide compounds and use thereof” (Asahi Kasei Pharma Corporation, priority 2008, dated 2011).

What follows are molecules tested against T1, human calcium-sensing receptor (CaSR) (Homo sapiens, UniProt P41180) (assay: intracellular Ca assay, CaSR antagonist activity in HEK293/hCaSR cells). Conditions: Fura2-AM, inhibition of response to calcium chloride ligand solution, read-out: IC50 values according to the intracellular Ca assay (CaSR antagonist activity).
T1 construct: expressed in transfected cells
T1 sequence (P41180 20-1078): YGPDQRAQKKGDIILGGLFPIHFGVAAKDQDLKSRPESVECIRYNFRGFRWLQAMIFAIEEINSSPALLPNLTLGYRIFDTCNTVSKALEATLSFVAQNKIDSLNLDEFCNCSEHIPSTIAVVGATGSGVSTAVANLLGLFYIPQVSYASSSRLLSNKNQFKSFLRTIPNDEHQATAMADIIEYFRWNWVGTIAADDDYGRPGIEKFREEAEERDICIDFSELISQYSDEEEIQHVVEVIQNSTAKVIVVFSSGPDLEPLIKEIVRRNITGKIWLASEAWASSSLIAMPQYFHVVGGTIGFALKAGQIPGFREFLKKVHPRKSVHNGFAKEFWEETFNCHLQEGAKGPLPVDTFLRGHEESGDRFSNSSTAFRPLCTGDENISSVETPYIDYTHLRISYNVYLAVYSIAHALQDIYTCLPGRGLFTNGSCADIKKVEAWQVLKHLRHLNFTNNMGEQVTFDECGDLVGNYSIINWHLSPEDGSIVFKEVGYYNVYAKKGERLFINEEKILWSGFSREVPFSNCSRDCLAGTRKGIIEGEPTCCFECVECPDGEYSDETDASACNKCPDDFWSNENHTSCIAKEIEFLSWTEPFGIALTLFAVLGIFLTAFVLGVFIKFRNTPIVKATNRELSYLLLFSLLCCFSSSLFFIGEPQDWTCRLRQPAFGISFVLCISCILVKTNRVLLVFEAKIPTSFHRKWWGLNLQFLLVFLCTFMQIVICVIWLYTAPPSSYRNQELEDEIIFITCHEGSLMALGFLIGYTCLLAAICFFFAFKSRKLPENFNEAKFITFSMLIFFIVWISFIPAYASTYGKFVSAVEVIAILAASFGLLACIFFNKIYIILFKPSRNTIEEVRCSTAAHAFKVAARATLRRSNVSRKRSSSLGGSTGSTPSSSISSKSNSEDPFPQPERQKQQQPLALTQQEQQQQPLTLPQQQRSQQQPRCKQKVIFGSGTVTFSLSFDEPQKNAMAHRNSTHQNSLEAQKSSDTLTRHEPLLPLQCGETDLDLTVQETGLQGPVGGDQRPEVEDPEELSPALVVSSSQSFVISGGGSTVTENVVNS
Type: cell-based
Procedure, shortened: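 HEK293/hCaSR cells were loaded with Fura2-AM and pre-incubated with compound for 160 s at 37° C in HEPES buffer (pH 7.4, 0.8 mM CaCl2), then challenged with calcium ligand solution. Read-out was the peak 340/380 nm fluorescence ratio; inhibition is relative to no-compound (0%) and no-calcium-ligand (100%) controls.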

Structure (SMILES) | IC50
Cc1cc(S(=O)(=O)N(C)C[C@H](O)CNC(C)(C)CC2Cc3ccccc3C2)ccc1-c1cccc(CCC(=O)O)c1 [Exp. 3-178, (R)-3-(4′-(N-(3-(1-(2,3-dihydro-1H-inden-2-yl)-2-methylpropan-2-ylamino)-2-hydroxypropyl)-N-methylsulfamoyl) 2′-methylbiphenyl-3-yl)propionic acid] | ≤ 300 nM
CN(C[C@H](O)CNC(C)(C)CC1Cc2ccccc2C1)S(=O)(=O)c1cc(F)c(-c2cccc(CCC(=O)O)c2)cc1F [Exp. 3-180, (R)-3-(4′-(N-(3-(1-(2,3-dihydro-1H-inden-2-yl)-2-methylpropan-2-ylamino)-2-hydroxypropyl)-N-methylsulfamoyl)-2′,5′-difluorobiphenyl-3-yl)propionic acid] | ≤ 300 nM
CN(C[C@H](O)CNC(C)(C)CCCc1ccccc1)S(=O)(=O)c1ccc(-c2cccc(CCC(=O)O)c2)c(Cl)c1 [Exp. 3-185, (R)-3-(2′-chloro-4′-(N-(2-hydroxy-3-(2-methyl-5-phenylpentan-2-ylamino)propyl)-N-methylsulfamoyl)biphenyl-3-yl)propionic acid] | ≤ 300 nM
CCc1cc(-c2cccc(CCC(=O)O)c2)ccc1S(=O)(=O)N(C)C[C@H](O)CNC(C)(C)CCCc1ccccc1 [Exp. 3-187, (R)-3-(3′-ethyl-4′-(N-(2-hydroxy-3-(2-methyl-5-phenylpentan-2-ylamino)propyl)-N-methylsulfamoyl)biphenyl-3-yl)propionic acid] | ≤ 300 nM
CN(C[C@H](O)CNC(C)(C)CC1Cc2ccccc2C1)S(=O)(=O)c1cc(-c2ccc(F)c(C(=O)O)c2)cc(C(F)(F)F)c1 [Exp. 3-193, (R)-3′-(N-(3-(1-(2,3-dihydro-1H-inden-2-yl)-2-methylpropan-2-ylamino)-2-hydroxypropyl)-N-methylsulfamoyl)-4-fluoro-5′-(trifluoromethyl)biphenyl-3-carboxylic acid] | ≤ 300 nM
Cc1cc(-c2cc(C(F)(F)F)cc(S(=O)(=O)N(C)C[C@H](O)CNC(C)(C)CC3Cc4ccccc4C3)c2)ccc1C(=O)O [Exp. 3-197, (R)-3′-(N-(3-(1-(2,3-dihydro-1H-inden-2-yl)-2-methylpropan-2-ylamino)-2-hydroxypropyl)-N-methylsulfamoyl)-3-methyl-5′-(trifluoromethyl)biphenyl-4-carboxylic acid] | ≤ 300 nM
CN(C[C@H](O)CNC(C)(C)CC1Cc2ccccc2C1)S(=O)(=O)c1cccc(-c2cccc(C(=O)O)c2F)c1 [Exp. 3-201, (R)-3′-(N-(3-(1-(2,3-dihydro-1H-inden-2-yl)-2-methylpropan-2-ylamino)-2-hydroxypropyl)-N-methylsulfamoyl)-2-fluorobiphenyl-3-carboxylic acid] | ≤ 300 nM
CN(C[C@H](O)CNC(C)(C)CC1Cc2ccccc2C1)S(=O)(=O)c1ccc(-c2ccc(C(=O)O)c(Cl)c2)cc1C(F)(F)F [Exp. 3-213, (R)-3-chloro-4′-(N-(3-(1-(2,3-dihydro-1H-inden-2-yl)-2-methylpropan-2-ylamino)-2-hydroxypropyl)-N-methylsulfamoyl)-3′-(trifluoromethyl)biphenyl-4-carboxylic acid] | ≤ 300 nM
Cc1cc(C(=O)O)ccc1-c1cccc(S(=O)(=O)N(C)C[C@H](O)CNC(C)(C)CC2Cc3ccccc3C2)c1 [Exp. 3-220, (R)-3′-(N-(3-(1-(2,3-dihydro-1H-inden-2-yl)-2-methylpropan-2-ylamino)-2-hydroxypropyl)-N-methylsulfamoyl)-2-methylbiphenyl-4-carboxylic acid] | ≤ 300 nM
CN(C[C@H](O)CNC(C)(C)CC1Cc2ccccc2C1)S(=O)(=O)c1cccc(-c2ccc(OCC(=O)O)c(Cl)c2)c1 [Exp. 3-223, (R)-2-(3-chloro-3′-(N-(3-(1-(2,3-dihydro-1H-inden-2-yl)-2-methylpropan-2-ylamino)-2-hydroxypropyl)-N-methylsulfamoyl)biphenyl-4-yloxy)acetic acid] | ≤ 300 nM
CN(C[C@H](O)CNC(C)(C)CC1Cc2ccccc2C1)S(=O)(=O)c1cccc(-c2c(Cl)cc(C(=O)O)cc2Cl)c1 [Exp. 3-228, (R)-2,6-dichloro-3′-(N-(3-(1-(2,3-dihydro-1H-inden-2-yl)-2-methylpropan-2-ylamino)-2-hydroxypropyl)-N-methylsulfamoyl)biphenyl-4-carboxylic acid] | ≤ 300 nM
CN(C[C@H](O)CNC(C)(C)CC1Cc2ccccc2C1)S(=O)(=O)c1ccc(-c2ccc(C(=O)O)nc2)c(C(F)(F)F)c1 [Exp. 3-231, (R)-5-(4-(N-(3-(1-(2,3-dihydro-1H-inden-2-yl)-2-methylpropan-2-ylamino)-2-hydroxypropyl)-N-methylsulfamoyl)-2-(trifluoromethyl)phenyl)picolinic acid] | ≤ 300 nM
CCc1cc(-c2ccc(CCC(=O)O)cc2Cl)ccc1S(=O)(=O)N(C)C[C@H](O)CNC(C)(C)CC1Cc2ccccc2C1 [Exp. 5-16, (R)-3-(2-chloro-4′-(N-(3-(1-(2,3-dihydro-1H-inden-2-yl)-2-methylpropan-2-ylamino)-2-hydroxypropyl)-N-methylsulfamoyl)-3′-ethylbiphenyl-4-yl)propionic acid] | ≤ 300 nM
CN(C[C@H](O)CNC(C)(C)CC1Cc2ccccc2C1)S(=O)(=O)c1ccc(-c2cc(CCC(=O)O)ccc2F)cc1C(F)(F)F [Exp. 5-18, (R)-3-(4′-(N-(3-(1-(2,3-dihydro-1H-inden-2-yl)-2-methylpropan-2-ylamino)-2-hydroxypropyl)-N-methylsulfamoyl)-6-fluoro-3′-(trifluoromethyl)biphenyl-3-yl)propionic acid] | ≤ 300 nM
CCc1cc(-c2cc(CCC(=O)O)ccc2F)ccc1S(=O)(=O)N(C)C[C@H](O)CNC(C)(C)CC1Cc2ccccc2C1 [Exp. 5-21, (R)-3-(4′-(N-(3-(1-(2,3-dihydro-1H-inden-2-yl)-2-methylpropan-2-ylamino)-2-hydroxypropyl)-N-methylsulfamoyl)-3′-ethyl-6-fluorobiphenyl-3-yl)propionic acid] | ≤ 300 nM
CN(C[C@H](O)CNC(C)(C)CC1Cc2ccccc2C1)S(=O)(=O)c1ccc(-c2cc(CCC(=O)O)ccc2F)c(F)c1 [Exp. 5-23, (R)-3-(4′-(N-(3-(1-(2,3-dihydro-1H-inden-2-yl)-2-methylpropan-2-ylamino)-2-hydroxypropyl)-N-methylsulfamoyl)-2′,6-difluorobiphenyl-3-yl)propionic acid] | ≤ 300 nM
COc1ccc(-c2cc(S(=O)(=O)N(C)C[C@H](O)CNC(C)(C)CC3Cc4ccccc4C3)sc2Cl)cc1CCC(=O)O [Exp. 5-29, (R)-3-(5-(2-chloro-5-(N-(3-(1-(2,3-dihydro-1H-inden-2-yl)-2-methylpropan-2-ylamino)-2-hydroxypropyl)-N-methylsulfamoyl)thiophen-3-yl)-2-methoxyphenyl)propionic acid] | ≤ 300 nM
CCc1cc(-c2ccc(OC)c(CCC(=O)O)c2)ccc1S(=O)(=O)N(C)C[C@H](O)CNC(C)(C)CCCc1ccccc1 [Exp. 5-30, (R)-3-(3′-ethyl-4′-(N-(2-hydroxy-3-(2-methyl-5-phenylpentan-2-ylamino)propyl)-N-methylsulfamoyl)-4-methoxybiphenyl-3-yl)propionic acid] | ≤ 300 nM
CCc1cc(-c2ccc(CCC(=O)O)c(F)c2)ccc1S(=O)(=O)N(C)C[C@H](O)CNC(C)(C)CC1Cc2ccccc2C1 [Exp. 5-58, (R)-3-(4′-(N-(3-(1-(2,3-dihydro-1H-inden-2-yl)-2-methylpropan-2-ylamino)-2-hydroxypropyl)-N-methylsulfamoyl)-3′-ethyl-3-fluorobiphenyl-4-yl)propionic acid] | ≤ 300 nM
CN(C[C@H](O)CNC(C)(C)CC1Cc2ccccc2C1)S(=O)(=O)c1ccc(-c2ccc(CCC(=O)O)c(F)c2)c(Cl)c1 [Exp. 5-59, (R)-3-(2′-chloro-4′-(N-(3-(1-(2,3-dihydro-1H-inden-2-yl)-2-methylpropan-2-ylamino)-2-hydroxypropyl)-N-methylsulfamoyl)-3-fluorobiphenyl-4-yl)propionic acid] | ≤ 300 nM
CN(C[C@H](O)CNC(C)(C)CC1Cc2ccccc2C1)S(=O)(=O)c1ccc(-c2ccc(F)c(CCC(=O)O)c2)cc1C(F)(F)F [Exp. 5-62, (R)-3-(4′-(N-(3-(1-(2,3-dihydro-1H-inden-2-yl)-2-methylpropan-2-ylamino)-2-hydroxypropyl)-N-methylsulfamoyl)-4-fluoro-3′-(trifluoromethyl)biphenyl-3-yl)propionic acid] | ≤ 300 nM
